From ChEMBL document CHEMBL1833945, “Synthesis and anticonvulsant activity of new N-Mannich bases derived from 5-cyclopropyl-5-phenyl- and 5-cyclopropyl-5-(4-chlorophenyl)-imidazolidine-2,4-diones” (Bioorg Med Chem, 2011)
Active and inactive are the calls of the source. The calls are words filed in the database; no cut-off is given here.

How the values were obtained:
Mus musculus [1] = assay: Anticonvulsant activity in CF1 albino mouse assessed as protection against subcutaneous pentylenetetrazole-induced seizures at 300 mg/kg, […] after 4 hrs; type: functional, organism-based; parameters: dose 300 mg/kg
Mus musculus [2] = assay: Neurotoxicity in CF1 albino mouse assessed as impair in motor coordination at 300 mg/kg, ip after 4 hrs by rotarod test; type: toxicity, organism-based; parameters: dose 300 mg/kg, route intraperitoneal; conditions: in vivo
Mus musculus [3] = assay: Anticonvulsant activity in ip dosed CF1 albino mouse assessed as protection against maximal electroshock-induced seizures after 0.5 hrs; type: functional; conditions: read-out: MED
[4] = Lipophilicity, log P of compound; type: physicochemical; conditions: octanol/water
Mus musculus [5] = assay: Neurotoxicity in CF1 albino mouse assessed as loss of rotard grasping at 300 mg/kg, ip after 0.5 hrs by rotarod test; type: toxicity, organism-based; parameters: dose 300 mg/kg, route intraperitoneal; conditions: in vivo
Mus musculus [6] = assay: Anticonvulsant activity in ip dosed CF1 albino mouse assessed as protection against maximal electroshock-induced seizures after 4 hrs; type: functional; conditions: read-out: MED
Rattus norvegicus [7] = assay: Neurotoxicity in Sprague-Dawley albino rat assessed as motor impairment at 30 mg/kg, po after 2 hrs by rotarod test; type: toxicity, organism-based; parameters: dose 30 mg/kg, route oral; conditions: in vivo
Mus musculus [8] = assay: Anticonvulsant activity in CF1 albino mouse assessed as protection against maximal electroshock-induced seizures at 300 mg/kg, ip after 0.5 hrs; type: functional, organism-based; parameters: dose 300 mg/kg
Rattus norvegicus [9] = assay: Neurotoxicity in Sprague-Dawley albino rat assessed as motor impairment at 30 mg/kg, po after 0.5 hrs by rotarod test; type: toxicity, organism-based; parameters: dose 30 mg/kg, route oral; conditions: in vivo
[10] = Neurotoxicity in oral dosed Sprague-Dawley albino rat assessed as motor impairment by rotarod test; type: toxicity, organism-based; conditions: in vivo
Rattus norvegicus [11] = assay: Anticonvulsant activity in po dosed Sprague-Dawley albino rat assessed as protection against maximal electroshock-induced seizures; type: functional
Mus musculus [12] = assay: Neurotoxicity in CF1 albino mouse assessed as impair in motor coordination at 300 mg/kg, ip after 0.5 hrs by rotarod test; type: toxicity, organism-based; parameters: dose 300 mg/kg, route intraperitoneal; conditions: in vivo
Rattus norvegicus [13] = assay: Anticonvulsant activity in po dosed Sprague-Dawley albino rat assessed as time to peak effect; type: functional
Mus musculus [14] = assay: Neurotoxicity in ip dosed CF1 albino mouse assessed as minimum dose required to cause impair in motor coordination after 4 hrs by rotarod test; type: toxicity, organism-based; conditions: in vivo
Rattus norvegicus [15] = assay: Anticonvulsant activity in Sprague-Dawley albino rat assessed as protection against maximal electroshock-induced seizures at 30 mg/kg, po after 0.5 hrs; type: functional, organism-based; parameters: dose 30 mg/kg
Rattus norvegicus [16] = organism: Rattus norvegicus; assay: Protective index, ratio of TD50 for neurotoxicity in Sprague-Dawley albino rat to ED50 for inhibition of maximal electroshock-induced seizures in Sprague-Dawley albino rat; type: functional
Mus musculus [17] = assay: Toxicity in subcutaneous pentylenetetrazole-induced CF1 albino mouse assessed as myoclonic jerks at 300 mg/kg, ip after 4 hrs; type: organism-based; parameters: dose 300 mg/kg; conditions: in vivo, sc
Rattus norvegicus [18] = assay: Neurotoxicity in Sprague-Dawley albino rat assessed as motor impairment at 30 mg/kg, po after 1 hrs by rotarod test; type: toxicity, organism-based; parameters: dose 30 mg/kg, route oral; conditions: in vivo
Rattus norvegicus [19] = assay: Anticonvulsant activity in Sprague-Dawley albino rat assessed as protection against maximal electroshock-induced seizures at 30 mg/kg, po after 0.25 hrs; type: functional, organism-based; parameters: dose 30 mg/kg
Rattus norvegicus [20] = assay: Anticonvulsant activity in Sprague-Dawley albino rat assessed as protection against maximal electroshock-induced seizures at 30 mg/kg, po after 4 hrs; type: functional, organism-based; parameters: dose 30 mg/kg
Rattus norvegicus [21] = assay: Neurotoxicity in Sprague-Dawley albino rat assessed as motor impairment at 30 mg/kg, po after 4 hrs by rotarod test; type: toxicity, organism-based; parameters: dose 30 mg/kg, route oral; conditions: in vivo
Rattus norvegicus [22] = assay: Neurotoxicity in Sprague-Dawley albino rat assessed as motor impairment at 30 mg/kg, po after 0.25 hrs by rotarod test; type: toxicity, organism-based; parameters: dose 30 mg/kg, route oral; conditions: in vivo
Mus musculus [23] = assay: Toxicity in subcutaneous pentylenetetrazole-induced CF1 albino mouse assessed as myoclonic jerks at 100 mg/kg, ip after 0.5 hrs; type: organism-based; parameters: dose 100 mg/kg; conditions: in vivo, sc
Rattus norvegicus [24] = assay: Neurotoxicity in Sprague-Dawley albino rat assessed as motor impairment at 50 mg/kg, po after 2 hrs by rotarod test; type: toxicity, organism-based; parameters: dose 50 mg/kg, route oral; conditions: in vivo
Rattus norvegicus [25] = assay: Neurotoxicity in Sprague-Dawley albino rat assessed as motor impairment at 50 mg/kg, po after 4 hrs by rotarod test; type: toxicity, organism-based; parameters: dose 50 mg/kg, route oral; conditions: in vivo
Mus musculus [26] = assay: Anticonvulsant activity in ip dosed CF1 albino mouse assessed as protection against subcutaneous pentylenetetrazole-induced seizures after 0.5 hrs; type: functional; conditions: read-out: MED
Rattus norvegicus [27] = assay: Neurotoxicity in Sprague-Dawley albino rat assessed as motor impairment at 50 mg/kg, po after 0.5 hrs by rotarod test; type: toxicity, organism-based; parameters: dose 50 mg/kg, route oral; conditions: in vivo
Rattus norvegicus [28] = assay: Anticonvulsant activity in Sprague-Dawley albino rat assessed as protection against subcutaneous pentylenetetrazole-induced seizures at 50 mg/kg, po after 0.25 hrs; type: functional, organism-based; parameters: dose 50 mg/kg
Rattus norvegicus [29] = assay: Neurotoxicity in Sprague-Dawley albino rat assessed as motor impairment at 50 mg/kg, po after 0.25 hrs by rotarod test; type: toxicity, organism-based; parameters: dose 50 mg/kg, route oral; conditions: in vivo
Rattus norvegicus [30] = assay: Neurotoxicity in Sprague-Dawley albino rat assessed as motor impairment at 50 mg/kg, po after 1 hrs by rotarod test; type: toxicity, organism-based; parameters: dose 50 mg/kg, route oral; conditions: in vivo
Mus musculus [31] = assay: Neurotoxicity in CF1 albino mouse assessed as minimum dose causing loss of righting reflex at 300 mg/kg, ip after 4 hrs by rotarod test; type: toxicity, organism-based; parameters: dose 300 mg/kg, route intraperitoneal; conditions: in vivo
Mus musculus [32] = assay: Anticonvulsant activity in ip dosed CF1 albino mouse assessed as protection against subcutaneous pentylenetetrazole-induced seizures after 4 hrs; type: functional; conditions: read-out: MED
Mus musculus [33] = assay: Anticonvulsant activity in CF1 albino mouse assessed as protection against electrically-induced seizure at 100 mg/kg, ip after 0.25 hrs by 6Hz psychomotor seizure test; type: functional, organism-based; parameters: dose 100 mg/kg
Rattus norvegicus [34] = assay: Anticonvulsant activity in po dosed Sprague-Dawley albino rat assessed as protection against subcutaneous pentylenetetrazole-induced seizures; type: functional
Mus musculus [35] = assay: Anticonvulsant activity in CF1 albino mouse assessed as protection against electrically-induced seizure at 100 mg/kg, ip after 0.5 hrs by 6Hz psychomotor seizure test; type: functional, organism-based; parameters: dose 100 mg/kg
Mus musculus [36] = assay: Toxicity in subcutaneous pentylenetetrazole-induced CF1 albino mouse assessed as myoclonic jerks at 300 mg/kg, ip after 0.5 hrs; type: organism-based; parameters: dose 300 mg/kg; conditions: in vivo, sc

Row | logP [4] | Compound | Activity (Mus musculus [1]) | Activity (Mus musculus [2]) | minimal effective dose (Mus musculus [3]) [mg/kg] | minimal effective dose (Mus musculus [6]) [mg/kg] | Activity (Rattus norvegicus [7]) | Activity (Mus musculus [8]) | Activity (Rattus norvegicus [9]) | TD50 [10] [mg/kg] | ED50 (Rattus norvegicus [11]) [mg/kg] | Activity (Mus musculus [12]) | Time (Rattus norvegicus [13]) [h] | Activity (Rattus norvegicus [15]) | PI (Rattus norvegicus [16]) | Activity (Mus musculus [17]) | Activity (Rattus norvegicus [18]) | Activity (Rattus norvegicus [19]) | Activity (Rattus norvegicus [21]) | Activity (Rattus norvegicus [22]) | further results
1 | 3.9 | CC(c1ccccc1)N1CCN(CN2C(=O)NC(c3ccc(Cl)cc3)(C3CC3)C2=O)CC1 (stereo not given) | inactive | Non-toxic | 300 | 300 | – | – | – | – | – | – | – | – | – | – | – | – | – | – | Activity (Mus musculus [5]): Toxic
2 | 2.98 | O=C1NC(c2ccccc2)(C2CC2)C(=O)N1CN1CCN(CCc2ccccc2)CC1 (stereo not given) | – | – | – | 30 | Non-toxic | inactive | Non-toxic | > 100 | 17.1 | Non-toxic | 4 | inactive | >5.86 | Toxic | Non-toxic | inactive | Non-toxic | Non-toxic | MTC (Mus musculus [14]): 300 mg/kg; Activity (Rattus norvegicus [20]): Active
3 | 2.17 | O=C(c1ccccc1)N1CCN(CN2C(=O)NC(c3ccccc3)(C3CC3)C2=O)CC1 (stereo not given) | – | Non-toxic | 100 | 100 | Non-toxic | – | Non-toxic | – | – | Non-toxic | – | inactive | – | Toxic | Non-toxic | inactive | Non-toxic | Non-toxic | Activity (Mus musculus [23]): Toxic
4 | 3.19 | CC(c1ccccc1)N1CCN(CN2C(=O)NC(c3ccccc3)(C3CC3)C2=O)CC1 (stereo not given) | – | Non-toxic | 300 | 100 | Non-toxic | – | Non-toxic | > 200 | 10.9 | Non-toxic | 2 | – | >18.3 | Toxic | Non-toxic | – | Non-toxic | Non-toxic | ED50 (Rattus norvegicus [34]): < 100 mg/kg
5 | 2.92 | O=C(OCc1ccccc1)N1CCN(CN2C(=O)NC(c3ccccc3)(C3CC3)C2=O)CC1 (stereo not given) | – | Non-toxic | 300 | 100 | Non-toxic | – | Non-toxic | > 60 | 10 | Non-toxic | 6 | inactive | >5.98 | Toxic | Non-toxic | inactive | Non-toxic | Non-toxic | Activity (Rattus norvegicus [20]): Active; Activity (Mus musculus [36]): Toxic

Further lines, the compound ahead of its results:

Row | Compound | logP [4] | Activity (Mus musculus [1]) | Activity (Mus musculus [2]) | minimal effective dose (Mus musculus [3]) [mg/kg] | minimal effective dose (Mus musculus [6]) [mg/kg] | Activity (Rattus norvegicus [7]) | Activity (Mus musculus [8]) | Activity (Rattus norvegicus [9]) | TD50 [10] [mg/kg] | ED50 (Rattus norvegicus [11]) [mg/kg] | Activity (Mus musculus [12]) | Time (Rattus norvegicus [13]) [h] | Activity (Rattus norvegicus [15]) | PI (Rattus norvegicus [16]) | Activity (Mus musculus [17]) | Activity (Rattus norvegicus [18]) | Activity (Rattus norvegicus [19]) | Activity (Rattus norvegicus [21]) | Activity (Rattus norvegicus [22]) | further results
6 | O=C1NC(c2ccc(Cl)cc2)(C2CC2)C(=O)N1CN1CCN(c2ccccc2F)CC1 (stereo not given) | – | inactive | Non-toxic | – | 300 | – | inactive | – | – | – | Non-toxic | – | – | – | – | – | – | – | – | –
7 | O=C1NC(c2ccc(Cl)cc2)(C2CC2)C(=O)N1CN1CCOCC1 (stereo not given) | 2 | – | – | 100 | 100 | – | – | – | – | – | – | – | – | – | – | – | – | – | – | Activity (Rattus norvegicus [24]): Non-toxic; Activity (Rattus norvegicus [25]): Non-toxic; minimal effective dose (Mus musculus [26]): 100 mg/kg; Activity (Rattus norvegicus [27]): Non-toxic; Activity (Rattus norvegicus [28]): inactive; Activity (Rattus norvegicus [29]): Non-toxic; Activity (Rattus norvegicus [30]): Non-toxic; Activity (Mus musculus [31]): Toxic; Activity (Mus musculus [5]): Toxic; minimal effective dose (Mus musculus [32]): 300 mg/kg; Activity (Mus musculus [33]): inactive
8 | O=C1NC(=O)C(c2ccc(Cl)cc2)(C2CC2)N1 (stereo not given) | 2.63 | – | – | – | 300 | – | inactive | – | > 135 | – | Non-toxic | 2 | – | – | – | – | – | – | – | Activity (Rattus norvegicus [24]): Non-toxic; Activity (Rattus norvegicus [25]): Non-toxic; minimal effective dose (Mus musculus [26]): 300 mg/kg; MTC (Mus musculus [14]): 300 mg/kg; Activity (Rattus norvegicus [27]): Non-toxic; Activity (Rattus norvegicus [28]): inactive; Activity (Rattus norvegicus [29]): Non-toxic; Activity (Rattus norvegicus [30]): Non-toxic; ED50 (Rattus norvegicus [34]): 85 mg/kg; Activity (Mus musculus [35]): inactive; minimal effective dose (Mus musculus [32]): 30 mg/kg; Activity (Mus musculus [33]): inactive
9 | O=C1NC(c2ccccc2)(C2CC2)C(=O)N1CN1CCN(c2ccccc2F)CC1 (stereo not given) | – | inactive | Non-toxic | – | 100 | – | inactive | – | – | – | Non-toxic | – | – | – | – | – | – | – | – | –
